Reference: patent US20140348807A1, “PROCESS FOR THE PREPARATION OF A BIOMASS COMPRISING PLANTARICIN AND USES THEREOF IN MEDICAL FIELD” (GIULIANI S.p.A., priority 2010, published 2014)
Read-outs that look alike come from different tables or passages of the source. Ends that are not written are not given here.

What was measured:
Caco-2/TC7 cells [1] = test: Caco-2/TC7 cell viability, Neutral Red absorption assay; assay type: cell-based, Human; details: for viability of Caco-2/TC7 cells (Neutral Red) vs DMEM negative control: 2.5 μg/ml, incubation 24-72 hours; for negative effect of IFN-γ on Caco-2/TC7 viability under simultaneous plantaricin A treatment: IFN-γ 1000 U/ml + plantaricin A 2.5 μg/ml
Protocol: Human Caco-2/TC7 cells (TC7 clone) have been cultured in Dulbecco medium (DMEM), added with calf serum (10%), not essential amino acids (1%), gentamycin/streptomycin (50 μg/ml), glutamine (2 mM) and 4-2-hydroxyethyl-1-piperazinil-etansulfonic acid (1%) (Di Cagno et al., 2010. Quorum sensing in sourdough Lactobacillus plantarum DC400: induction of plantaricin A (PlnA) under co-cultivation with other lactic acid bacteria and effect of PlnA on bacterial and Caco-2 cells. Proteomics in press). Cell viability has been determined with absorption assay using Neutral Red dye (Balls et al., 1987. Approaches to validation alternative methods in toxicology. In: Goldber A. M. (Ed). N.Y. Academic Press pp. 45-58). After 24-72 hour treatment with various preparations, cells have been washed with PBS buffer and incubated for 4 hours at 37° C. with a Neutral Red solution (33 mg/I). Successively, the cells have been again washed with PBS buffer and treated with lysis solution (50% ethanol in 1% acetic acid containing water). Plate reading has been carried out using Novapath plate reader (Biorad, Hercules, Calif.). Di Cagno et al., 2010. Quorum sensing in sourdough Lactobacillus plantarum DC400: induction of plantaricin A (PlnA) under co-cultivation conditions with other lactic acid bacteria and effect of PlnA on bacterial and Caco-2 cells. Proteomics in press).

Caco-2/TC7 cells [2] = test: TEER of Caco-2/TC7 cell layer; assay type: cell-based, Human; details: for negative effect of IFN-γ on Caco-2/TC7 TEER with added plantaricin A: IFN-γ 1000 U/ml + plantaricin A 2.5 μg/ml
Protocol: For TEER determination Caco-2/TC7 cells have been inoculated (7.5×10^4 cells/ml) in a 24 well plate and a polyethylene filter (0.4 μm pore). Before the treatment, the cells have been incubated for 21 days at 37° C. Treatments with various preparations have been carried out for 18, 24 and 48 hours. Integrity of the cellular layer therefore has been determined by means of TEER determination.

[3] = system: human NCTC 2544 keratinocyte cell line; assay type: cell-based; details: 0.1 μg/ml
Protocol: The used cell line is a human NCTC 2544 keratinocyte cell line (Perry, V. P., Sanford, K. K., Evans, V. J., Hyatt, G. W., Earle, W. R., 1957. Establishment of clones of epithelial cells from human skin. J Natl Cancer Inst. 18 (5): 709-717) cultured in sterile flasks, incubated at 37° C. in humid atmosphere at 5% CO2 in MEM (Minimum Essential Medium) culture medium added with 10% bovine calf serum (FBS), 2 mM L-glutamine, 1% not essential amino acids, in the presence of 1% penicillin and streptomycin. Cells grow in vitro adhering to culture plate surface as a monolayer.
The experiment firstly involves the development of confluent cell monolayer. Successively the cut is carried out and the generated “gap” is observed using microscope as cells gradually moving repair the damage.
NCTC 2544 cells are plated and cultured at 37° C., with 5% CO2 for 24 hours.
After 24 hours complete growth medium is replaced with serum free medium to avoid the serum effect on cell proliferation and cells are incubated for further 24 hours at 37° C., 5% CO2.
After 24 hours the cell monolayer is mechanically damaged by mild 200 μl pipette tip brushing tracking a ˜1 mm wide horizontal line. Then the monolayer is washed and after addition of substances to be tested, the plates are incubated at 37° C., 5% CO2 for 72 hours.
the effect of the substances on cell motility is evaluated using phase contrast reverse microscope, acquiring images at various opportunely selected analysis times.
the damage remedy is determined measuring the clear area between the cut two migration fronts at 0, 4, 8, 12, 24, 48, 72 hours after the cut, using an image processing software (Leica application Suite).
After the cut on the cellular monolayer has been carried out using a 200 μl pipette tip and the cells within the gap between two cut lines completely removed, said cells are treated with synthetic and co-culture deriving Plantaricin at the following concentrations: 0.1-1-10 μg/ml. Also positive and negative controls (connectivine at 100 μg/ml) have been duplicate tested.
Images on the same cut area have been acquired at time 0 and after 4, 8, 12, 24, 48 and 72 hours, to monitor the cell migration in the cut area.

[4] = system: Cultured human keratinocytes; test: Wound healing assay on cultured human keratinocyte monolayer (Example 2); assay type: cell-based; details: 1 hour incubation with stimulus (Plantaricin A 2.5 μg/ml), then 24 hours
Protocol: Cultured human keratinocytes have been incubated with Plantaricin A (2.5 μg/ml) or Plantaricin A containing biomass for 1 hour.
At the end of the incubation, the cells have been washed and culture medium restored.
The test consists of carrying out a mechanical interruption in the continuity of the cellular monolayer in order the treatment effect in favouring or not the keratinocyte ability to migrate beyond the damage border and therefore “heal the lesion” to be evaluated.
To this end the keratinocyte monolayer, treated as above described, was incubated over aditional 24 hours after stimulus application and then fixed and stained using ematoxylin/eosin staining. Images have been observed with light microscope using 5× objective.
For each image maximum cell migration limits and distance or gap there between have been detected and calculated, respectively (FIG. 9-10).

Substance | viability of Caco-2/TC7 cells (Neutral Red) vs DMEM negative control (Caco-2/TC7 cells [1]) | negative effect of IFN-γ on Caco-2/TC7 viability under simultaneous plantaricin A treatment (Caco-2/TC7 cells [1]) | negative effect of IFN-γ on Caco-2/TC7 TEER with added plantaricin A (Caco-2/TC7 cells [2]) | percentage of migrated cells in comparison to the positive control ([3]; 1st of six time values (4 h)) | percentage of migrated cells in comparison to the positive control ([3]; 2nd of six time values (8 h)) | percentage of migrated cells in comparison to the positive control ([3]; 3rd of six time values (12 h)) | percentage of migrated cells in comparison to the positive control ([3]; 4th of six time values (24 h)) | percentage of migrated cells in comparison to the positive control ([3]; 5th of six time values (48 h)) | percentage of migrated cells in comparison to the positive control ([3]; 6th of six time values (72 h)) | TEER values for Caco-2/TC7 cells (Caco-2/TC7 cells [2]; 2.5 μg/ml, 24 and 48 hours, vs DMEM) | gap between the wound margins vs control cells [4]
KSSAYSLQMGATAIKQVKKLFKKWGW [chemically synthesized plantaricin A] | Same result | completely eliminated | eliminated also in this case the negative effects | 158.30% | 115.15% | 124.32% | 141.82% | 141.91% | 128.51% |  | 
KSSAYSLQMGATAIKQVKKLFKKWGW [purified plantaricin A] | remarkably increased | completely eliminated | eliminated also in this case the negative effects |  |  |  |  |  |  | remarkable increase | 
hyaluronic acid |  |  |  |  |  |  |  |  |  |  | lesion gap is narrower than for not treated cells
